Experimental data from ChEMBL document CHEMBL5137114, “Discovery of IHMT-MST1-58 as a Novel, Potent, and Selective MST1 Inhibitor for the Treatment of Type 1/2 Diabetes” (J Med Chem, 2022).
Calls of active or inactive are those of the source. The calls are words filed in the database; no cut-off is given here.

Experiments:
[1] = tested on: INS1; assay: Cytotoxicity against rat INS1 cells at 10 uM incubated for 72 hrs by Cell Titer-Glo assay; type: toxicity, cell-based; details: ins1, 72 h
[2] = tested on: INS1; assay: Protection against IL-1beta-induced cell damage in rat INS1 cells assessed as increase in cell survival at 0.03 to 0.3 uM incubated for 48 hrs by Cell Titer-Glo assay; type: functional, cell-based; details: dose 0.03-0.3 µM
[3] = tested on: Serine/threonine-protein kinase 4 (Rattus norvegicus); assay: Inhibition of TNF-alpha-stimulated MST1 in rat INS1 cells assessed as reduction in MOB1 autophosphorylation incubated for 12 hrs by Western blotting analysis; details: dose 0.1-10 µM, DDE = dose-dependent effect
[4] = Toxicity in high fat diet-STZ-induced C57BL/6J mouse model of type 2 diabetes assessed as effect on pancreas morphology at 250 mg/kg, po qd in presence of metformin by H and E staining based analysis; type: organism-based; details: in vivo
[5] = tested on: Mus musculus; assay: Antidiabetic activity against 8 hrs fasted multi low dose STZ-induced C57BL/6J mouse model of type 1 diabetes assessed as decrease in fasting blood glucose level at 50 mg/kg, po administered for 77 days (reference value: 22.3 mmol/L); type: functional; details: time 77 day
[6] = tested on: Serine/threonine-protein kinase 4 (Rattus norvegicus); assay: Inhibition of TNF-alpha-stimulated MST1 phosphorylation in rat INS1 cells incubated for 12 hrs by Western blotting analysis; details: dose 0.1-10 µM, DDE = dose-dependent effect
[7] = Toxicity in high fat diet-STZ-induced C57BL/6J mouse model of type 2 diabetes assessed as effect on pancreas morphology at 50 mg/kg, po qd by H and E staining based analysis; type: organism-based; details: in vivo
[8] = tested on: Mus musculus; assay: Antidiabetic activity in multi low dose STZ-induced C57BL/6J mouse model of type 1 diabetes assessed as reduction in HbA1c level at 50 mg/kg, po qd (reference value: 7.6 %); type: functional; parameters: scale not given: the % may be the effect or the level left
[9] = tested on: Mus musculus; assay: Antidiabetic activity in high fat diet-STZ-induced C57BL/6J mouse model of type 2 diabetes assessed as reduction in HbA1c level at 250 mg/kg, po qd administered in presence of metformin (reference value: 8.6 %); type: functional; parameters: scale not given: the % may be the effect or the level left
[10] = Cmax in Beagle dog at 1 mg/kg, iv measured up to 12 hrs by LC-MS/MS analysis; type: ADME, organism-based, Canis lupus familiaris; parameters: dose 1 mg/kg, time < 12 hrs, route iv; details: in vivo
[11] = tested on: INS1; assay: Protection against IFN-gamma-induced cell damage in rat INS1 cells assessed as increase in cell survival at 0.03 to 0.3 uM incubated for 48 hrs by Cell Titer-Glo assay; type: functional, cell-based; details: dose 0.03-0.3 µM
[12] = tested on: Serine/threonine-protein kinase 4 (Rattus norvegicus); assay: Inhibition of INF-gamma-stimulated MST1 phosphorylation in rat RIN-m5F cells incubated for 12 hrs by Western blotting analysis; details: dose 0.1-10 µM, DDE = dose-dependent effect
[13] = tested on: Mus musculus; assay: Antidiabetic activity against multi low dose STZ-induced C57BL/6J mouse model of type 1 diabetes assessed as food intake at 50 mg/kg, po administered for 78 to 79 days (reference value: 4.7 g/day); type: functional; details: time 78-79 day
[14] = tested on: Serine/threonine-protein kinase 4 (Rattus norvegicus); assay: Inhibition of TNF-alpha-stimulated MST1 in rat RIN-m5F cells assessed as reduction in MOB1 autophosphorylation incubated for 12 hrs by Western blotting analysis; details: dose 0.1-10 µM, DDE = dose-dependent effect
[15] = tested on: Serine/threonine-protein kinase 4 (Rattus norvegicus); assay: Inhibition of IL-1beta-stimulated MST1 in rat INS1 cells assessed as reduction in MOB1 autophosphorylation incubated for 12 hrs by Western blotting analysis; details: dose 0.1-10 µM, DDE = dose-dependent effect
[16] = AUC (0 to t) in Sprague-Dawley rat at 10 mg/kg, po measured up to 24 hrs by LC-MS/MS analysis; type: ADME, organism-based; parameters: time < 24 hrs, dose 10 mg/kg, route po; details: in vivo
[17] = AUC (0 to t) in Beagle dog at 10 mg/kg, po measured up to 24 hrs by LC-MS/MS analysis; type: ADME, organism-based, Canis lupus familiaris; parameters: dose 10 mg/kg, time < 24 hrs, route po; details: in vivo
[18] = Cmax in mouse plasma at 50 mg/kg, po measured up to 24 hrs by LC-MS/MS analysis; type: ADME, organism-based; parameters: dose 50 mg/kg, time < 24 hrs, route po
[19] = molecular target: T1, Serine/threonine-protein kinase 3 (Homo sapiens) (UniProt Q13188); assay: Inhibition of recombinant full length N-terminal GST -tagged human MST2 expressed in baculovirus infected Sf9 insect cells using KKSRGDYMTMQIG as substrate incubated for 1 hr in presence of ATP by ADP-Glo luminescent assay relative to control; details: concentration not given here
T1 sequence (whole entry): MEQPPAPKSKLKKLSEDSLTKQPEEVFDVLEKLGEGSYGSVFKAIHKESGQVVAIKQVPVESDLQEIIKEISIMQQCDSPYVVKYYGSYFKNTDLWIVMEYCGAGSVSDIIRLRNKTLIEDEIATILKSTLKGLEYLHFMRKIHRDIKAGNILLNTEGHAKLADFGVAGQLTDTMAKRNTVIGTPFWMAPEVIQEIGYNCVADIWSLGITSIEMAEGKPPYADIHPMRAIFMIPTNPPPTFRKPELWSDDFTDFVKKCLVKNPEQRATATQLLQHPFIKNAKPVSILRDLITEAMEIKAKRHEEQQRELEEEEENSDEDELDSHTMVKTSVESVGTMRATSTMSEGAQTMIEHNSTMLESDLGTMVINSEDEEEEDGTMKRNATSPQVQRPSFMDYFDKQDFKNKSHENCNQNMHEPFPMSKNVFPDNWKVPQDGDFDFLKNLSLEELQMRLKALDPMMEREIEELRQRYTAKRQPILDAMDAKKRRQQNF

[20] = Cytotoxicity against rat RIN-m5F cells at 10 uM incubated for 72 hrs by Cell Titer-Glo assay; type: toxicity, cell-based
[21] = tested on: Mus musculus; assay: Antidiabetic activity in multi low dose STZ-induced C57BL/6J mouse model of type 1 diabetes assessed as reduction in HbA1c level at 50 mg/kg, po qd administered in presence of metformin (reference value: 7.6 %); type: functional; parameters: scale not given: the % may be the effect or the level left
[22] = tested on: Mus musculus; assay: Antidiabetic activity against 12 hrs fasted high fat diet-STZ-induced C57BL/6J mouse model of type 2 diabetes assessed as decrease in fasting blood glucose level at 50 mg/kg, po qd measured immediately (reference value: 20.3 mmol/L); type: functional
[23] = Toxicity in high multi low dose STZ-induced C57BL/6J mouse model of Type 1 diabetes assessed as effect on body weight at 50 mg/kg, po qd in presence of metformin; type: organism-based; details: in vivo
[24] = Cmax in mouse at 1 mg/kg, iv measured up to 12 hrs by LC-MS/MS analysis; type: ADME, organism-based; parameters: time < 12 hrs, dose 1 mg/kg, route iv; details: in vivo
[25] = tested on: Mus musculus; assay: Antidiabetic activity in 12 to 14 hrs fasted high fat diet-STZ-induced C57BL/6J mouse model of type 2 diabetes assessed as reduction on blood glucose at 50 mg/kg, po qd pretreated with compound followed by glucose challenge measured upto 180 mins by IPGTT assay; type: functional, organism-based
[26] = Clearance in mouse plasma at 50 mg/kg, po measured up to 24 hrs by LC-MS/MS analysis; type: ADME, organism-based

For Cc1ccccc1C1C(=O)N(C)c2cnc(Nc3ccc(S(N)(=O)=O)cc3)nc2N1C (stereo unspecified), the Activity [1] was “Non-Toxic”, the Activity [2] was “Active” and the inhibition [3] was “Dde”. The Activity [4] was “Non-Toxic”, the Activity [5] was 14.2 mmol/L and the inhibition [6] was “Dde”. The Activity [7] was “Non-Toxic”, the Activity [8] was 6.7% and the Activity [9] was 5.9%. For the same molecule, the Cmax [10] was 467 ng/mL, the Activity [11] was “Active” and the inhibition [12] was “Dde”. The Activity [13] was 4 g/day, the inhibition [14] was “Dde” and the inhibition [15] was “Dde”. The AUCt [16] was 4858 ng·h/mL, the AUC(0-t) at 24 h [17] was 4940 ng·h/mL and the Cmax [18] was 3990 ng/mL. The inhibition [19] was 52%, the Activity [20] was “Non-Toxic” and the Activity [21] was 6.1%. For the same molecule, the Activity [22] was 20.2 mmol/L, the Activity [23] was “Non-Toxic” and the Cmax [24] was 1240 ng/mL. For the same molecule, the Activity [25] was “Active” and the CL/F [26] was 62.2 mL/min/kg.
